# Assay results reported in US20220267310A1, “QUINAZOLINE AND CINNOLINE DERIVATIVES AS DNA-PK INHIBITOR” (MEDSHINE DISCOVERY INC., priority 2019, published 2022).
# “And” between values parts separate entries of the source, which are not always exact repeats. Equal values may be shown once.
# Tests used:
# PI3K (p110σ/p85α) = target: T1, PI3K (p110σ/p85α) (Homo sapiens, UniProt O00329); test: PI3K (p110σ/p85α) kinase inhibitory activity (HTRF); format: biochemical
# T1 construct: Eurofins Pharma Discovery Service (contract assay)
# T1 sequence (O00329 whole entry): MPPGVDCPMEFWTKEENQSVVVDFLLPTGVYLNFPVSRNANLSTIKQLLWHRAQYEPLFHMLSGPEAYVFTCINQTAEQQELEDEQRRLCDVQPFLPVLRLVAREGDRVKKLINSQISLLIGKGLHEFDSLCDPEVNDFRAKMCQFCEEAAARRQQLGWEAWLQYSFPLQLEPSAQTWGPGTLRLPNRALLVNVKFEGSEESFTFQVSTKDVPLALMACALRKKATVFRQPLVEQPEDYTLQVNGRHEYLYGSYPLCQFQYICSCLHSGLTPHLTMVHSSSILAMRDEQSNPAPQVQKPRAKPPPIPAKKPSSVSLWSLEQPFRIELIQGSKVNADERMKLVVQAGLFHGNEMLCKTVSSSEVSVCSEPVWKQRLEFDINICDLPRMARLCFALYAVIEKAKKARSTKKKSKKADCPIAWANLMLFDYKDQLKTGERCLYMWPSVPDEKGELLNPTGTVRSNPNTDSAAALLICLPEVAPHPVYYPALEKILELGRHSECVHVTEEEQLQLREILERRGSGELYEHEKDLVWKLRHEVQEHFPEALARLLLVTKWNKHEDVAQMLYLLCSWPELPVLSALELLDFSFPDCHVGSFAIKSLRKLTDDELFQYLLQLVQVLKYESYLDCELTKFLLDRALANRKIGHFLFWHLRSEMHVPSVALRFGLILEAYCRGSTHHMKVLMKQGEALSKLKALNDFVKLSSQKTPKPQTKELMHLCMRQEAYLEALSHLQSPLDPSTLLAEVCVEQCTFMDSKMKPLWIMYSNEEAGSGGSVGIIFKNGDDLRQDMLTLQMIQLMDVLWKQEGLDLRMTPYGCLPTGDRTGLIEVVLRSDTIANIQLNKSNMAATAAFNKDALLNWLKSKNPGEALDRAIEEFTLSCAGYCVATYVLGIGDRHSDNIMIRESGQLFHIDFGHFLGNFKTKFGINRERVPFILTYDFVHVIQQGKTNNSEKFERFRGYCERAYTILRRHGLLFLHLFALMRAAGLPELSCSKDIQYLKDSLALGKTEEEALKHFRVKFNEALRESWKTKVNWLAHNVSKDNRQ
# T1 sequence (P27986 whole entry partner): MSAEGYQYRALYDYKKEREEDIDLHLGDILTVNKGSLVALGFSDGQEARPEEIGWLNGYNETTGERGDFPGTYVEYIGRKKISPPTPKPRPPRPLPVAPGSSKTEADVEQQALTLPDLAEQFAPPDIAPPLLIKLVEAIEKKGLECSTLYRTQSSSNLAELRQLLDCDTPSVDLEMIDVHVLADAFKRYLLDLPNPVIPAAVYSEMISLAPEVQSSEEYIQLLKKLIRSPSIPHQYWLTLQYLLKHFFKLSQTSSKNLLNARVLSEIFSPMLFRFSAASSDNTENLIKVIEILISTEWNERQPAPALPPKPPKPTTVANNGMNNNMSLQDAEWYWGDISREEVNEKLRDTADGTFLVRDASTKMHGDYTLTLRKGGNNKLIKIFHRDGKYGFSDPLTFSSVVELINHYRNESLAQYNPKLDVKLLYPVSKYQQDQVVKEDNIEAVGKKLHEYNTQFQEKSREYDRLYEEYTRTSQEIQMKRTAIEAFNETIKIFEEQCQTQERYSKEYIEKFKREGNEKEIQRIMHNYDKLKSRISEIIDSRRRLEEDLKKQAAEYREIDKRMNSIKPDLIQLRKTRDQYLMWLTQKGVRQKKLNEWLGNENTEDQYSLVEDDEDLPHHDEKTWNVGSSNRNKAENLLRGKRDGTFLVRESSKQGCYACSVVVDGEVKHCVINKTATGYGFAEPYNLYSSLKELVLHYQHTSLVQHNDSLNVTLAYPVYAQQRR
# DNA-PK (h) = target: T2, DNA-PK (h) (Homo sapiens, UniProt P78527); test: DNA-PK kinase inhibitory activity (HTRF, Eurofins); format: biochemical; settings: ATP: 10 μM
# T2 construct: Eurofins Pharma Discovery Service (contract assay)
# Procedure: (§1) This experiment was tested at Eurofins Pharma Discovery Service, Reaction Biology Corp. (RBC)
# (§2) […] DNA-PK: Mg/ATP; GST-cMyc-p53; EDTA; Ser15 antibody; ATP: 10 μM; biotinylated phosphatidylinositol-3,4,5-triphosphate; GST label GRP1 PH domain; streptavidin and phycocyanin; europium-labelled monoclonal antibody against GST.
# (§3) DNA-PK (h) was incubated in a determination buffer containing 50 nM GST-cMyc-p53 and Mg/ATP (density as required). The reaction was initiated by adding a mixture of Mg/ATP. After incubating at room temperature for 30 min, a termination solution containing EDTA was added to terminate the reaction. Finally, a detection buffer (containing labeled anti-GST monoclonal antibody and europium-labeled anti-phosphate Ser15 antibody against phosphorylated p53) was added. Then, the board was read in time-resolved fluorescence mode, and a Homogeneous Time Resolved Fluorescence (HTRF) signal was measured according to the formula HTRF=10000×(Em665 nm/Em620 nm).
# PI3K (p110β/p85α) = target: T3, PI3K (p110β/p85α) (Homo sapiens, UniProt P42338); test: PI3K (p110β/p85α) kinase inhibitory activity (HTRF); format: biochemical
# T3 construct: Eurofins Pharma Discovery Service (contract assay)
# T3 sequence (P42338 whole entry, species assumed): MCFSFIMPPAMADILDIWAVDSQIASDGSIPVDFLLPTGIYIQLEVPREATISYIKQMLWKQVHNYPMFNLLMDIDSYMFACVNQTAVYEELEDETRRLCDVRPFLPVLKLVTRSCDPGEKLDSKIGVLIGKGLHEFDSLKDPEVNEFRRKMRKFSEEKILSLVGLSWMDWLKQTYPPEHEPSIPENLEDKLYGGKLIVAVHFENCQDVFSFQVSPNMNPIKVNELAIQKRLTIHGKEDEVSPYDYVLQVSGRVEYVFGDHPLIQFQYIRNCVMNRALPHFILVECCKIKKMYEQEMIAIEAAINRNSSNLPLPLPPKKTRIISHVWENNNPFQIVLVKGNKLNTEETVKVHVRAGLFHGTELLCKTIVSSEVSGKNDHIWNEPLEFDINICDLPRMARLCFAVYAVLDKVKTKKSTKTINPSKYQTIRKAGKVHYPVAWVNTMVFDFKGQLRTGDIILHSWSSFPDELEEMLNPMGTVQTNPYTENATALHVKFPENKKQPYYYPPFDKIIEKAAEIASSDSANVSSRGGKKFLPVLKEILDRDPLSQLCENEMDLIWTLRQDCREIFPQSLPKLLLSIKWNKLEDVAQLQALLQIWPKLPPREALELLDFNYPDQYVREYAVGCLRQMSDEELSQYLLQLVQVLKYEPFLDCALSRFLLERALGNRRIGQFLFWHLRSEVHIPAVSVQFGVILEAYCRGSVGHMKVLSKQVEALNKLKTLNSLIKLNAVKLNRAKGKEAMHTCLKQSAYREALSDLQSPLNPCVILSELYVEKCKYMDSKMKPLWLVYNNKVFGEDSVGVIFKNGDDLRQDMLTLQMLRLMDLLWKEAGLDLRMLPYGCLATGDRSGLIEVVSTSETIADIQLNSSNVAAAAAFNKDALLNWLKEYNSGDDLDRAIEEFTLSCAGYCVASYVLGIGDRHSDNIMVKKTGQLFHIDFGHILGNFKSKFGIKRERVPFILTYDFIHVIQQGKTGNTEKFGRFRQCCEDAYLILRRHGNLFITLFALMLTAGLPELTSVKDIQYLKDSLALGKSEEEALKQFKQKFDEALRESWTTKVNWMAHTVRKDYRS
# T3 sequence (P27986 whole entry partner, species assumed): as the sequence (P27986 whole entry partner) above
# Procedure: as §1, §2
# as §3, with “PI3K (p110β/p85α) was” for “DNA-PK (h) was”, “containing phosphatidylinositol 4,5-diphosphate” for “containing 50 nM GST-cMyc-p53”, “EDTA and biotinylated phosphatidylinositol-3,4, 5-triphosphate” for “EDTA”, “monoclonal antibody, PH domain of GRP1 with GST label and streptavidin and phycyanin” for “monoclonal antibody”, “and an HTRF” for “and a Homogeneous Time Resolved Fluorescence (HTRF)”
# PI3K (p110α/p85α) = target: T4, PI3K (p110α/p85α) (Homo sapiens, UniProt P42336); test: PI3K (p110α/p85α) kinase inhibitory activity (HTRF); format: biochemical
# T4 construct: Eurofins Pharma Discovery Service (contract assay)
# T4 sequence (P42336 whole entry, species assumed): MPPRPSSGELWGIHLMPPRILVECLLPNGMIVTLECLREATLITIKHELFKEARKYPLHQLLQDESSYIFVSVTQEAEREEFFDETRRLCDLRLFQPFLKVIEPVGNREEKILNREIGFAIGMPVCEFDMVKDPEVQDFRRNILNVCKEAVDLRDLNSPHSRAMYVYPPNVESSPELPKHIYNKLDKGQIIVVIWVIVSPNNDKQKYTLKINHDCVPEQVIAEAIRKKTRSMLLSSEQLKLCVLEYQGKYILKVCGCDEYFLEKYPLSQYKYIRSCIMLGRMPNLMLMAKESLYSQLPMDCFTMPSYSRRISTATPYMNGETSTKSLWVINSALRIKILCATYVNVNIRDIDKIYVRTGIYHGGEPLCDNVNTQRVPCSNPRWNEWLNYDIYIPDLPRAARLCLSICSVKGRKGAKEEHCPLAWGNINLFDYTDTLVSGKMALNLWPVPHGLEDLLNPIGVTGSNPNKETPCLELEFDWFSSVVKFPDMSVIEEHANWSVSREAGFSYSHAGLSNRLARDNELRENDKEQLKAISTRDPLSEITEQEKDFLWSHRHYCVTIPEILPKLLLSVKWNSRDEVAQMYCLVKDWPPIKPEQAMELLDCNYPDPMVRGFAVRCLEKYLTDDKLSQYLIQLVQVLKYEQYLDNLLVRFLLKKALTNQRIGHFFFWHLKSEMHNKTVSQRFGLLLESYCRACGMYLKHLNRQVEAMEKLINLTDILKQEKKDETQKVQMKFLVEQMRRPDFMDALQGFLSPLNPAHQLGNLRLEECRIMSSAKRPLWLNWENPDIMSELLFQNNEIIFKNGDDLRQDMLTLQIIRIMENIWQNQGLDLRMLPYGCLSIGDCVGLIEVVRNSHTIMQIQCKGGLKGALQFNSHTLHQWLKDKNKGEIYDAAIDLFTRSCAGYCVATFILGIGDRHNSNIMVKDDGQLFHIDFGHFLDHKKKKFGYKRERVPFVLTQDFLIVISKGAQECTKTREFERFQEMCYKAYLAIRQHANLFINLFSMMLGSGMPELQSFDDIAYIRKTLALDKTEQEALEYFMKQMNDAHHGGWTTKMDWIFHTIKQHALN
# T4 sequence (P27986 whole entry partner, species assumed): as the sequence (P27986 whole entry partner) above
# Procedure: as §1, §2
# PI3K (p110α/p85α) was incubated in a determination buffer containing phosphatidylinositol 4,5-diphosphate and Mg/ATP (density as required). The reaction was initiated by adding an ATP solution. After incubating at room temperature for 30 min, a termination solution containing EDTA and biotinylated phosphatidylinositol-3,4,5-triphosphate was added to terminate the reaction. Finally, a detection buffer (containing labeled anti-GST monoclonal antibody, PH domain of GRP1 with GST label and streptavidin and phycyanin and […]) was added. Then, the board was read in time-resolved fluorescence mode, and an HTRF signal was measured according to the formula HTRF=10000×(Em665 nm/Em620 nm).
# [1] = tested on: human small cell lung cancer NCI-H69 cell subcutaneous xenograft tumor; test: NCI-H69 subcutaneous xenograft, combination with etoposide, 22-day experiment (Table 7); format: in vivo, BALB/c nude mice; settings: for T/C (%) / TGI (%): 22nd day; for Tumor volume (mm^3) (0th day) / Tumor volume (mm^3) (22th day): average ± SEM
# Procedure: Experiment example 3: in vivo pharmacodynamics of human small cell lung cancer NCI-H69 cell subcutaneous xenograft tumor BALB/c nude mouse model:
# Experimental animals: Female BALB/c nude mice, 6-8 weeks old, weighing 15-22 grams; supplier: Shanghai Linchang Biotechnology Co., LTD. (Linchang, Shanghai)
# Human small cell lung cancer NCI-H69 cells (ATCC, item number: HTB-119 and ECACC-95111733) were cultured in vitro in a culture condition of RPMI-1640 medium with 10% fetal bovine serum, 100 U/mL penicillin and 100 μg/mL streptomycin, incubated at 37° C. and 5% CO2. Conventional passage was carried out twice a week. When cell saturation was 80%-90% and the number reaches the requirement, cells were collected, counted and inoculated.
# 0.2 mL (10×10^6) NCI-H69 cells (with matrix glue, and volume ratio of 1:1) were subcutaneously inoculated into a right back of each mouse, and group administration was initiated when the average tumor volume reaches about 110-120 mm^3.
# The tested compound was prepared as a 5 mg/mL clarified solution with 10% DMSO+50% polyethylene glycol 400+40% water as the solvent.
# The experimental indicators refers to study whether tumor growth was inhibited, delayed, or cured. Tumor diameter was measured twice a week with a vernier caliper. The calculation formula of the tumor volume was V=0.5a×b^2, and a and b represent the long diameter and short diameter of the tumor, respectively.
# The antitumor efficacy of the compound was evaluated by TGI (%) or relative tumor proliferation rate T/C (%). TGI (%) reflects the tumor growth inhibition rate. The calculation of TGI (%): TGI (%)=[1−(average tumor volume at the end of administration of a certain treatment group−average tumor volume at the beginning of administration of the treatment group)/(average tumor volume at the end of treatment in solvent control group−average tumor volume at the beginning of treatment in solvent control group)]×control group.
# Relative tumor proliferation rate T/C (%): the calculation formula was as follows: T/C %=[…] TRTV/CRTV group (TRTV: treatment group RTV; CRTV: negative control group RTV). According to results of tumor measurement, Relative Tumor Volume (RTV) was calculated by the formula RTV=Vt/V0, where V0 was the average tumor volume measured in group administration (i.e., d0), and Vt was the average tumor volume measured in a certain single measurement. TRTV and CRTV collect data on the same day.
# Statistic analysis includes an average value and a standard error (SEM) of tumor volume at each time point for each group. […] If there was no significant difference in F value, Dunnet (2-sided) method was applied to analysis. All data were analyzed using SPSS 17.0. P<0.05 was considered as having a significant difference.
# [2] = 40 mg/kg group (+ etoposide 10 mg/kg, IP)
# [3] = 40 mg/kg, PO, QD + etoposide 10 mg/kg, IP, 3-day administration, 4-day withdrawal
# [4] = second Embodiment 19 group of Table 7, 40 mg/kg, PO, QD + etoposide 10 mg/kg, IP
smiles,measurement,setting,value
"COc1ccc([C@@H](O)c2cc(-c3nncc4cc(N5CCOCC5)ccc34)c(F)cc2Cl)nn1 [Embodiment M3814, reference compound]",IC50,PI3K (p110σ/p85α),14 nM
same,IC50,DNA-PK (h),1 nM
same,IC50,PI3K (p110β/p85α),33 nM
same,IC50,PI3K (p110α/p85α),42 nM
same,Weight changes,[1]; [2],−16.00%
same,RTV (22th day),[1]; [3],2.96
same,T/C (%),[1]; [3],34.40%
same,TGI (%),[1]; [3],74% and 74.21%
same,Tumor volume (mm^3) (0th day),[1]; [3],119 ± 13 mm^3
same,Tumor volume (mm^3) (22th day),[1]; [3],352 ± 26 mm^3
"COc1ccc(C(O)c2cc(-c3cnnc4c(F)c(N5CCOCC5)cc(F)c34)c(F)cc2Cl)nn1 (single isomer, unassigned) [Embodiment 19]",IC50,PI3K (p110σ/p85α),600 nM
same,IC50,DNA-PK (h),2.1 nM
same,IC50,PI3K (p110β/p85α),345 nM
same,IC50,PI3K (p110α/p85α),483 nM
same,Weight changes,[1]; [2],−5.88%
same,RTV (22th day),[1]; [3],3.73
same,T/C (%),[1]; [3],43.34%
same,TGI (%),[1]; [3],64% and 63.98%
same,Tumor volume (mm^3) (0th day),[1]; [3],119 ± 12 mm^3
same,Tumor volume (mm^3) (22th day),[1]; [3],444 ± 34 mm^3
same,Weight changes,"[1]; 80 mg/kg group (+ etoposide 10 mg/kg, IP)",0.13%
same,TGI,"[1]; 80 mg/kg, PO, QD + etoposide 10 mg/kg, IP, 3-day administration, 4-day withdrawal",80%
same,RTV (22th day),[1]; [4],2.51
same,Tumor volume (mm^3) (0th day),"[1]; second Embodiment 19 group of Table 7, 40 mg/kg, PO, QD + etoposide 10 mg/kg, IP, 3-day administration, 4-day withdrawal",119 ± 12 mm^3
same,T/C (%),[1]; [4],29.20%
same,TGI (%),[1]; [4],80.09%
same,Tumor volume (mm^3) (22th day),[1]; [4],299 ± 31 mm^3
